# Reference: PMC8264259, “A Novel Ruthenium(II) Complex With Lapachol Induces G2/M Phase Arrest Through Aurora-B Kinase Down-Regulation and ROS-Mediated Apoptosis in Human Prostate Adenocarcinoma Cells” (Frontiers in Oncology, 2021)
# Tests used:
# DU-145 cells [1] = assay: Cell cycle analysis (PI, flow cytometry); type: cell-based, human; settings: DU-145, 0.25-1.5 μM, 24 h
# Procedure: DNA staining was performed using BD Cycletest™ Plus DNA Kit (BD Biosciences, USA) according to the manufacturer’s instructions. Briefly, DU-145 cells were seeded (5.0 × 10^4 cells/well) into 24-well culture plates and maintained to attach at 37°C in 5% CO2. After 24 h, the culture medium was replaced by complete culture medium containing 0.25, 0.5, 1.0, and 1.5 μM of complex (2). DMSO (0.1% v/v) was used as the vehicle control. Then, after 24 h treatment, the cells were harvested and fixed with 70% ethanol at 4°C for 1 h. Cells were incubated with 0.1 mg/ml RNase and 0.5 mg/ml propidium iodide (PI) for 10 min. Samples were then filtered using 50-µm nylon mesh and the FACSCanto flow cytometer (Becton Dickinson, Franklin Lakes, NJ, USA) was used to analyze the DNA histogram. Data from 10,000 cells were acquired and analyzed using the ModFit software (BD Biosciences, USA). The results were expressed as percentage of cells in each cell cycle phase (G1, S, and G2/M).
# [2] = test system: cleaved caspase-3, -9, and PARP; assay: Western blot, apoptotic proteins; type: cell-based, human; settings: DU-145, 24 h
# Procedure: Briefly, DU-145 cells were seeded (1.0 × 10^6 cells/well) into six-well plates and maintained to attach at 37°C in 5% CO2. After 24 h, cells were treated with 0.25, 0.50, 1.0, and 1.5 μM of complex (2). DMSO (0.1% v/v) was used as the vehicle control. After 24 h of incubation, cells were collected and suspended in Western blotting lysis buffer (20 mM Tris-HCl pH 7.4, 150 mM NaCl, 1 mM EDTA, and phosphatase and protease inhibitors). Cell lysates were centrifuged at 11,000g for 15 min at 4 °C, and supernatant was collected. Protein concentrations were quantified using the BCA Protein Assay Kit® (Thermo Fischer Scientific), according to the manufacturer’s instructions. For immunoblotting, equal amounts (30 μg) of total protein were electrophoresed in a NuPAGE® 4-12% Bis-Tris gel and transferred to an Invitrolon™ polyvinylidene difluoride (PVDF) membrane (Novex®, Thermo Fischer Scientific) at 100 V for 1 h. PVDF-membrane was washed two times (5 min each) with Tris-buffered saline plus Tween 20 (TBST, Sigma-Aldrich) and blocked in 5% non-fat milk in phosphate buffered saline with Tween®20 (PBST, Sigma-Aldrich) for 1 h at room temperature. […]
# DU-145 cells [3] = assay: Gene expression analysis by qPCR array (Human Cancer Drug Targets); type: cell-based; settings: DU-145, 1.0 µM, 12 h, mRNA, ΔΔCt vs vehicle
# Procedure: Briefly, DU-145 cells were seeded (1.0 × 10^6 cells/well) into six-well plates and maintained to attach at 37°C in 5% CO2. After 24 h, the cells were treated with 1.0 μM of the complex (2). DMSO (0.1% v/v) was used as the vehicle control. After 12 h of incubation, total RNA was isolated from the cells using the RNeasy® Mini kit (Qiagen, Germany) according to the manufacturer’s instructions. RNA was quantified by NanoDrop spectrophotometer (ND-2000; Thermo Fischer Scientific). The Agilent 2100 Bioanalyzer and Agilent RNA 6000 Nanochip kits were used to assess the total RNA quality as per manual instruction (Agilent, USA). The Agilent 2100 Expert software (Version B.02.07.SI532) was used with the Eukaryote Total RNA Nano assay on the Agilent 2100 bioanalyzer. No significant differences in RIN values were observed across the samples. Complementary DNA strands were synthesized using the RT^2 First Strand kit (Qiagen, Germany), following the manufacturer’s instructions. Gene expression profiling was performed using the RT^2 Profiler™ PCR Array Human Cancer Drug Targets (PAHS 507Z, Qiagen) by qPCR. The reactions were conducted in the Applied Biosystems 7500 PCR System (Applied Biosystems, USA) thermocycler. The plate was heated to 95°C for 10 min, followed by 40 cycles of 95°C for 15 s and 60°C for 1 min, followed by the dissociation curve. The expression profile of 84 key drug targets genes was analyzed. Fold changes amplification for targeted genes was normalized to the housekeeping genes GAPDH and RPLP0 by the delta–delta cycle threshold method (ΔΔCt), and the cells treated with vehicle control (0.1% of DMSO v/v) was used as calibrator. The threshold cycle values of control wells were all within the ranges recommended by the PCR array user manual. Three independent biological replicates were performed. All experiments were performed in DNase/RNase free conditions. Genes were considered differentially regulated if the difference was ≥1.8-fold, which means that the gene expression in the compound-treated cells was at 1.8-fold that in the negative control-treated cells. Differences were considered significant at p ≤ 0.05. Statistical analysis of two groups was performed automatically according to the GeneGlobe Data Analysis Center (Qiagen, USA; https://geneglobe.qiagen.com/us/analyze).
smiles,measurement,setting,value
"CC(C)=CCC1=C([O-])C(=O)c2ccccc2C1=O.F[P-](F)(F)(F)(F)F.[Ru+2].c1ccc(P(CP(c2ccccc2)c2ccccc2)c2ccccc2)cc1.c1cnc2c(c1)ccc1cccnc12 [complex (2), [Ru(Lap)(dppm)(phen)]PF6]",cell cycle distribution,DU-145 cells [1],increased cell number at the G2/M phase
same,activation of downstream apoptotic proteins,[2],"increase in the activation of cleaved caspase-3, -9, and PARP"
same,"Fold change, AKT1",DU-145 cells [3],−2.6 fold
same,"Fold change, AKT2",DU-145 cells [3],−2.6 fold
same,"Fold change, AURKA",DU-145 cells [3],-5.3 fold
same,"Fold change, AURKB",DU-145 cells [3],-11.1 fold
same,"Fold change, AURKC",DU-145 cells [3],-3.0 fold
same,"Fold change, BCL2",DU-145 cells [3],-4.1 fold
same,"Fold change, BIRC5",DU-145 cells [3],-6.4 fold
same,"Fold change, CDC25A",DU-145 cells [3],−2.6 fold
same,"Fold change, CDK1",DU-145 cells [3],-4.5 fold
same,"Fold change, CDK2",DU-145 cells [3],−2.7 fold
same,"Fold change, CDK4",DU-145 cells [3],-4.6 fold
same,"Fold change, CDK5",DU-145 cells [3],−3.2 fold
same,"Fold change, EGFR",DU-145 cells [3],−4.1 fold
same,"Fold change, ERBB2",DU-145 cells [3],−2.4 fold
same,"Fold change, GSTP1",DU-145 cells [3],−2.9 fold
same,"Fold change, HDAC8",DU-145 cells [3],−1.8 fold
same,"Fold change, IGF1R",DU-145 cells [3],−2.7 fold
same,"Fold change, MDM4",DU-145 cells [3],2.8 fold
same,"Fold change, MTOR",DU-145 cells [3],−3.8 fold
same,"Fold change, PARP1",DU-145 cells [3],−2.7 fold
same,"Fold change, PARP2",DU-145 cells [3],−3.0 fold
same,"Fold change, PDGFRB",DU-145 cells [3],−2.0 fold
same,"Fold change, PIK3CA",DU-145 cells [3],−2.7 fold
same,"Fold change, PTGS2",DU-145 cells [3],2.1 fold
same,"Fold change, TOP2A",DU-145 cells [3],−2.1 fold
same,"Fold change, TOP2B",DU-145 cells [3],−2.8 fold
